The record followed here is ChEMBL document CHEMBL1287676, “Oleanane-type triterpenoids from Panax stipuleanatus and their anticancer activities” (Bioorg Med Chem Lett, 2010).

Calls of active or inactive are those of the source. The calls are words filed in the database; no cut-off is given here.

In assay [1] the test system is HCT-116. Put plainly: Cytotoxicity against human HCT116 cells by MTT assay. In kind it is functional, cell-based.
Assay [2] has as its system HL-60. Kind of assay: Cytotoxicity against human HL60 cells by MTT assay. Format: functional, cell-based.
Assay [3] deals with HL-60. Kind of assay: Induction of apoptosis in human HL60 cells assessed as cell shrinkage at IC50 concentration after 24 to 48 hrs using Hoechst 33342 staining by fluorescence microscope. In kind it is functional, cell-based.
The test system of assay [4] is HCT-116. Put plainly: Induction of apoptosis in human HCT116 cells assessed as chromatin condensation at IC50 concentration after 24 to 48 hrs using Hoechst 33342 staining by fluorescence microscope. Format: functional, cell-based.
For assay [5], the system named is HCT-116. Put plainly: Induction of apoptosis in human HCT116 cells assessed as increase in expression of DR5 by Western blotting. Format: functional, cell-based.
The test system of assay [6] is HCT-116. Kind of assay: Induction of apoptosis in human HCT116 cells assessed as decrease in expression of BCL-2 by Western blotting. Format: functional, cell-based.
Assay [7] relates to HL-60. Put plainly: Induction of apoptosis in human HL60 cells assessed as chromatin condensation at IC50 concentration after 24 to 48 hrs using Hoechst 33342 staining by fluorescence microscope. Format: functional, cell-based.
The subject of assay [8] is HCT-116. Kind of assay: Induction of apoptosis in human HCT116 cells assessed as cell shrinkage at IC50 concentration after 24 to 48 hrs using Hoechst 33342 staining by fluorescence microscope. Format: functional, cell-based.
Assay [9] deals with HCT-116. Kind of assay: Induction of apoptosis in human HCT116 cells assessed as membrane blebbing at IC50 concentration after 24 to 48 hrs using Hoechst 33342 staining by fluorescence microscope. In kind it is functional, cell-based.
The subject of assay [10] is HCT-116. Kind of assay: Induction of apoptosis in human HCT116 cells assessed as increase in induction of PARP cleavage by Western blotting. In kind it is functional, cell-based.
For assay [11], the target named is Mitogen-activated protein kinase; ERK1/ERK2 (Homo sapiens) (UniProt P27361+P28482). Kind of assay: Activation of ERK1/2 in human HCT116 cells assessed as phosphorylated ERK1/2 level by Western blotting. In kind it is cell-based. The following applies: HCT-116.
For assay [12], the system named is HL-60. Kind of assay: Induction of apoptosis in human HL60 cells assessed as membrane blebbing at IC50 concentration after 24 to 48 hrs using Hoechst 33342 staining by fluorescence microscope. In kind it is functional, cell-based.
Assay [13] concerns HCT-116. Kind of assay: Induction of apoptosis in human HCT116 cells assessed as increase in expression of Bax by Western blotting. In kind it is functional, cell-based.
In assay [14] the test system is HCT-116. Put plainly: Induction of apoptosis in human HCT116 cells assessed as increase in caspase-9 activation by Western blotting. Format: functional, cell-based.

Chain of Mitogen-activated protein kinase; ERK1/ERK2 (Homo sapiens) (P27361 whole entry, looked up): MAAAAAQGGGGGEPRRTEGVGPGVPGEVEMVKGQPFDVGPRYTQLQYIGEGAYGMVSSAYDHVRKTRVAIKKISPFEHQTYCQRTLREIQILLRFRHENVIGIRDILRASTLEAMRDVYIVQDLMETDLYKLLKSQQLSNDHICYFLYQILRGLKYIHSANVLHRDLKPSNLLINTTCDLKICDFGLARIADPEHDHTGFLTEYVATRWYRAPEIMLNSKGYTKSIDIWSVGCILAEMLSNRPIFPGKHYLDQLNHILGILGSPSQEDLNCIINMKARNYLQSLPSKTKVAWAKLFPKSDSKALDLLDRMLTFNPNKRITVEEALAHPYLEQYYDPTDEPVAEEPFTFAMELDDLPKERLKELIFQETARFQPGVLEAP
Chain of Mitogen-activated protein kinase; ERK1/ERK2 (Homo sapiens) (P28482 whole entry, looked up): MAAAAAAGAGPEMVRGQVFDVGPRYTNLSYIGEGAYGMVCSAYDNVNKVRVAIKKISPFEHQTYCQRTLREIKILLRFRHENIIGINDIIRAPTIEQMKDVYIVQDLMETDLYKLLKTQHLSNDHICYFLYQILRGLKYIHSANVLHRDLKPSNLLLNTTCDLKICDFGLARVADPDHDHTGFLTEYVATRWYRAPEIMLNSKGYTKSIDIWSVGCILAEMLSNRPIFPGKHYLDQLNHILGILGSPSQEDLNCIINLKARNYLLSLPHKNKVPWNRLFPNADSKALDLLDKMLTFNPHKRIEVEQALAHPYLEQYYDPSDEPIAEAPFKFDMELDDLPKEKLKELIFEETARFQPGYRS

As for `COC(=O)[C@H]1O[C@@H](O[C@H]2CC[C@]3(C)[C@H]4CC=C5[C@@H]6CC(C)(C)CC[C@]6(C(=O)O[C@@H]6O[C@H](CO)[C@@H](O)[C@H](O)[C@H]6O)CC[C@@]5(C)[C@]4(C)CC[C@H]3C2(C)C)[C@H](O)[C@@H](O[C@@H]2O[C@H](CO)[C@@H](O)[C@H](O)[C@H]2O)[C@@H]1O`, the IC50 is greater than 100 µM in [1] and 83.9 µM in assay [2].
For `COC(=O)[C@H]1O[C@@H](O[C@H]2CC[C@]3(C)[C@H]4CC=C5[C@@H]6CC(C)(C)CC[C@]6(C(=O)O[C@@H]6O[C@H](CO)[C@@H](O)[C@H](O)[C@H]6O)CC[C@@]5(C)[C@]4(C)CC[C@H]3C2(C)C)[C@H](O)[C@@H](O)[C@@H]1O[C@H]1O[C@@H](CO)[C@H](O)[C@H]1O` [ARALOSIDE A METHYL ESTER] the same measures were greater than 100 µM and 63.4 µM.
With `O=C1c2c(O)ccc(O)c2C(=O)c2c(NCCNCCO)ccc(NCCNCCO)c21` [MITOXANTRONE], the results for the IC50 in assay [1] and in assay [2] were 3.96 µM and 7.5 µM, respectively.
Consider `COC(=O)[C@H]1O[C@@H](O[C@H]2CC[C@]3(C)[C@H]4CC=C5[C@@H]6CC(C)(C)CC[C@]6(C(=O)O)CC[C@@]5(C)[C@]4(C)CC[C@H]3C2(C)C)[C@H](O)[C@@H](O[C@@H]2O[C@H](CO)[C@@H](O)[C@H](O)[C@H]2O)[C@@H]1O` [SPINASAPONIN A METHYL ESTER], for which the IC50 in assay [1] turned out to be 0.63 µM; in assay [2], 4.44 µM. In addition, the result in assay [3], in assay [4], in assay [5], in [6], in assay [7] and in [8] was Active. In addition, the result in assay [9], in assay [10], in [11], in assay [12], in assay [13] and in assay [14] was Active.
For `CC1(C)CC[C@]2(C(=O)O[C@@H]3O[C@H](CO)[C@@H](O)[C@H](O)[C@H]3O)CC[C@]3(C)C(=CC[C@@H]4[C@@]5(C)CC[C@H](O[C@@H]6O[C@H](C(=O)O)[C@@H](O)[C@H](O)[C@H]6O)C(C)(C)[C@@H]5CC[C@]43C)[C@@H]2C1` [CHIKUSETSUSAPONIN IVA], the IC50 in [1] was determined as 78.1 µM; in [2] it was 76.2 µM.
On the same counts, the results for `CC1(C)CC[C@]2(C(=O)O[C@@H]3O[C@H](CO)[C@@H](O)[C@H](O)[C@H]3O)CC[C@]3(C)C(=CC[C@@H]4[C@@]5(C)CC[C@H](O[C@@H]6O[C@H](C(=O)O)[C@@H](O[C@H]7O[C@@H](CO)[C@H](O)[C@H]7O)[C@H](O[C@@H]7O[C@H](CO)[C@@H](O)[C@H](O)[C@H]7O)[C@H]6O)C(C)(C)[C@@H]5CC[C@]43C)[C@@H]2C1` [STIPULEANOSIDE R2] are greater than 100 µM and greater than 100 µM.
On the same counts, the results for `CC1(C)CC[C@]2(C(=O)O)CC[C@]3(C)C(=CC[C@@H]4[C@@]5(C)CC[C@H](O)C(C)(C)[C@@H]5CC[C@]43C)[C@@H]2C1` [OLEANOLIC_ACID] are 4.8 µM and 77.5 µM.
For the compound `COC(=O)[C@H]1O[C@@H](O[C@H]2CC[C@]3(C)[C@H]4CC=C5[C@@H]6CC(C)(C)CC[C@]6(C(=O)O)CC[C@@]5(C)[C@]4(C)CC[C@H]3C2(C)C)[C@H](O[C@H]2OC[C@@H](O)[C@H](O)[C@H]2O)[C@@H](O)[C@@H]1O` [PESUDOGINSENOSIDE RP1 METHYL ESTER], the results for the IC50 in [1] and in assay [2] were 6.5 µM and 41.5 µM, respectively. The result in assay [3], in [4], in assay [5], in assay [6], in [7] and in assay [8] was Active. The outcome in assay [9], in [10], in [11], in assay [12], in [13] and in assay [14] was Active.
Consider `COC(=O)[C@H]1O[C@@H](O[C@H]2CC[C@]3(C)[C@H]4CC=C5[C@@H]6CC(C)(C)CC[C@]6(C(=O)O[C@@H]6O[C@H](CO)[C@@H](O)[C@H](O)[C@H]6O)CC[C@@]5(C)[C@]4(C)CC[C@H]3C2(C)C)[C@H](O[C@H]2OC[C@@H](O)[C@H](O)[C@H]2O)[C@@H](O)[C@@H]1O` [PSEUDOGINSENOSIDE RT1 METHYL ESTER], for which the IC50 in [1] and in assay [2] was greater than 100 µM each time.
With `CC1(C)CC[C@]2(C(=O)O[C@@H]3O[C@H](CO)[C@@H](O)[C@H](O)[C@H]3O)CC[C@]3(C)C(=CC[C@@H]4[C@@]5(C)CC[C@H](O[C@@H]6O[C@H](C(=O)O)[C@@H](O)[C@H](O)[C@H]6O[C@H]6OC[C@@H](O)[C@H](O)[C@H]6O)C(C)(C)[C@@H]5CC[C@]43C)[C@@H]2C1` [PSEUDOGINSENOSIDE RT1], the IC50 was greater than 100 µM in assay [1] and 91.2 µM in [2].
For `CC1(C)CC[C@]2(C(=O)O[C@@H]3O[C@H](CO)[C@@H](O)[C@H](O)[C@H]3O)CC[C@]3(C)C(=CC[C@@H]4[C@@]5(C)CC[C@H](O[C@@H]6O[C@H](CO)[C@@H](O)[C@H](O)[C@H]6O[C@H]6OC[C@@H](O)[C@H](O)[C@H]6O)C(C)(C)[C@@H]5CC[C@]43C)[C@@H]2C1` the same measures were 75.9 µM and greater than 100 µM.
On the same counts, the results for `CC1(C)CC[C@]2(C(=O)O[C@@H]3O[C@H](CO)[C@@H](O)[C@H](O)[C@H]3O)CC[C@]3(C)C(=CC[C@@H]4[C@@]5(C)CC[C@H](O[C@@H]6O[C@H](C(=O)O)[C@@H](O)[C@H](O[C@@H]7O[C@H](CO)[C@@H](O)[C@H](O)[C@H]7O)[C@H]6O)C(C)(C)[C@@H]5CC[C@]43C)[C@@H]2C1` are greater than 100 µM and 73 µM.
In the case of `COC(=O)[C@H]1O[C@@H](O[C@H]2CC[C@]3(C)[C@H]4CC=C5[C@@H]6CC(C)(C)CC[C@]6(C(=O)O[C@@H]6O[C@H](CO)[C@@H](O)[C@H](O)[C@H]6O)CC[C@@]5(C)[C@]4(C)CC[C@H]3C2(C)C)[C@H](O)[C@@H](O[C@@H]2O[C@H](CO)[C@@H](O)[C@H](O)[C@H]2O)[C@@H]1O[C@H]1O[C@@H](CO)[C@H](O)[C@H]1O` [STIPULEANOSIDE R2 METHYL ESTER], the IC50 in [1] is greater than 100 µM; in [2], 67.1 µM.
